Changes are numbered by the printed parent chain. Where a SMILES comes first, the peptide text is derived from it. Bridges are numbered along the chain shown (N, C = ends).
What was measured:
‘hu’ GHBP = biological target: T1, ‘hu’ GHBP (Rattus norvegicus, UniProt P16310, L61R); experiment: Species specificity of binding by ELISA and BIAcore, 'hu' GHBP; details: in words
T1 construct: 1–48 of GHBP; The 3′ oligo used for this reaction encoded the mutation L43R (CTG→AGA); The second PCR reaction amplified the DNA encoding amino acids 38–260; 6xHis; made in house
T1 sequence (P16310 19-278 isoform P16310-2 L61R): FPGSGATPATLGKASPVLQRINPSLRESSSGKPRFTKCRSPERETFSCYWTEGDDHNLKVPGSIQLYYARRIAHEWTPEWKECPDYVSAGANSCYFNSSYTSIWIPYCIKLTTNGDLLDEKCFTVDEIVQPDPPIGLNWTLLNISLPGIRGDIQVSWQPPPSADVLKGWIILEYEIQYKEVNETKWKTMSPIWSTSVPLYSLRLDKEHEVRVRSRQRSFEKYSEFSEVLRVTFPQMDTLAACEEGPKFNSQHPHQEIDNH
Experimental: (§1) Wells were coated with either recombinant rGHBP or ‘hu’ GHBP (100 ng/well). Additions of H5 (SEQ ID NO:8) and H10 (SEQ ID NOS:9, 80, and 81) phage (10^10/well) and detection were made as described. […] Streptavidin chips were coated with H5 (SEQ ID NO:8) to 1100 RU as described and rGHBP or ‘hu’ GHBP (500 μg/ml) injected as 30 μl samples.
(§2) Growth hormone receptors from different species bind human GH as well as their own GH, however human GHR only binds human or monkey GH. […] The sequence of rGHBP was altered by PCR to create a “humanized” version (‘hu’ GHBP; FIG. 9A). Partially purified ‘hu’GHBP (FIG. 9B) was tested for binding using ELISA and BIAcore analysis. […] This was confirmed by BIAcore analysis (FIG. 10B).
(§3) The biotinylated control peptide (SEQ ID NO:10) was immobilized onto one flow cell of a SA-5 (streptavidin coated) sensor chip to a final density of 700 RU. On a second flow cell, either hGH (1100 RU final density), H5WT peptide (SEQ ID NO:8; 1100 RU final density), or bGH (730 RU final density) was immobilized. GHBP (either rat or humanized) was injected at a concentration of 500 μg/ml with a flow rate of 5 μl/min. Background binding to the control surface was subtracted prior to further analysis.

rGHBP [1] = biological target: T2, rGHBP (Rattus norvegicus, UniProt P16310); experiment: Species specificity of binding by ELISA and BIAcore, rGHBP; details: in words
T2 construct: 1–48 of GHBP; The 3′ oligo used for this reaction encoded the mutation L43R (CTG→AGA); The second PCR reaction amplified the DNA encoding amino acids 38–260; 6xHis; made in house
T2 sequence (P16310 19-278 isoform P16310-2): T1 sequence (P16310 19-278 isoform P16310-2 L61R) with R43L
Experimental: as §1, §2, §3

rGHBP [2] = biological target: T2, rGHBP; experiment: Phage ELISA binding and competition on rGHBP coated wells
Experimental: For analysis of individual clones, colonies were picked and phage prepared as described above. Microtiter wells were coated and blocked as described above. Wells were coated with either rGHBP or a control IgG MAb. Phage resuspended in MPBS were added to duplicate wells (100 μl/well) and incubated at room temperature for 1 hr. The phage solution was then removed, and the wells were washed three times with PBS at room temperature. Anti-M13 antibody conjugated to horseradish peroxidase (Pharmacia Biotech) was diluted 1:3000 in MPBS and added to each well (100 μl/well). Incubation was for another hour at room temperature, followed by PBS washes as described. Color was developed by addition of ABTS solution (100 μl/well; Boehringer). Color development was stopped by adjusting each well to 0.5% SDS. Plates were analyzed at 405 nm using a SpectraMax 340 plate reader (Molecular Devices) and SoftMax Pro software. Data points were averaged after subtraction of appropriate blanks. A clone was considered “positive” if the A405 of the well was >2-fold over background. […]
These clones were next analyzed for binding to the receptor's active sites (FIG. 2B). Competitions of phage binding were done both with the cognate ligand (i.e., GH) and with a specific target-neutralizing MAb 2C3 (Wang, B. S., et al. Mol. Cellular Endocrinology, vol. 116, p. 223–226, 1996).
Clones were tested for the presence of E-tag and binding to ‘hu’ GHBP, rGHBP, or BSA-coated wells. Those having specific GHBP binding (i.e., at least 2 fold greater binding to the GHBP than BSA) and with an E-tag positive signal were subjected to DNA sequencing. Three different clones were isolated and tested a second time against GHBP plus and minus GH (1 μM) or BSA (1 μM) coated wells as described. In these tests, huGH was used as competitor with ‘hu’ GHBP coated wells and bovineGH was used as a competitor with rat GHBP coated wells. […] The following open reading frame insertion including the DYKD (SEQ ID NO:79) amino terminal tag and up to the C-terminal E-tag was obtained for these clones; and is shown in Table III: […]

- binding to ‘hu’ GHBP (‘hu’ GHBP): not ‘hu’GHBP
- binding to rGHBP (rGHBP [1]): bound to rGHBP
- ELISA Competition, rGHBP, +BSA (rGHBP [2]; ELISA signal, BSA 1 μM, phage concentrated 15×): 1.87
- ELISA Competition, rGHBP, +bGH (rGHBP [2]; ELISA signal, bovine GH 1 μM, phage concentrated 15×): 0.32
- ELISA Competition, rGHBP, none (rGHBP [2]; ELISA signal, no competitor, phage concentrated 15×): 1.91
- phage binding to rGHBP blocked by GH and MAb 2C3 (rGHBP [2]; competition ELISA of phage binding): blocked both by GH and by MAb 2C3
SMILES: CC(C)C[C@@H]1NC(=O)[C@H](CO)NC(=O)[C@H](CCC(N)=O)NC(=O)[C@@H](NC(=O)[C@H](CC(C)C)NC(=O)[C@H](CC(=O)O)NC(=O)[C@H](CCCCN)NC(=O)[C@H](Cc2ccc(O)cc2)NC(=O)[C@@H](N)CC(=O)O)CSSC[C@@H](C(=O)N[C@@H](C)C(=O)N[C@@H](CCCCN)C(=O)N[C@@H](CCCCN)C(=O)O)NC(=O)[C@H](Cc2c[nH]c3ccccc23)NC(=O)CNC(=O)[C@H](C)NC(=O)[C@H](CC(C)C)NC(=O)[C@H](Cc2c[nH]c3ccccc23)NC(=O)CNC(=O)[C@@H]2CCCN2C(=O)[C@H](Cc2ccc(O)cc2)NC(=O)[C@H]([C@@H](C)O)NC(=O)[C@H](C(C)C)NC(=O)CNC1=O [H5] (H-DYKDLCQSLGVTYPGWLAGWCAKK-OH; disulfide 6-21; N-terminus and C-terminus assumed)

— patent US7148193B2, “Compounds that bind to growth hormone receptor” (Antyra, Inc., priority 1997, dated 2006)
